{
  "source": "paper PMC7134596",
  "about": "(Febs Letters, 2004)",
  "biological_target": "SARS‐CoV M^pro (Severe acute respiratory syndrome-related coronavirus, UniProt P0C6X7)",
  "assay": "biochemical",
  "data": [
    {"smiles": "CC1=C(C(=O)OCCc2ccccc2)C(c2ccccc2[N+](=O)[O-])C2=C(CCCC2=O)N1", "note": "(stereo not shown) [MP576, 3‐quinolinecarboxylic acid, 1,4,5,6,7,8‐hexahydro‐2‐methyl‐4‐(2‐nitrophenyl)‐5‐oxo‐, 2‐phenylethyl ester]", "values": [
      {"measurement": "Ki", "result": "2.9 ± 0.3", "unit": "µM"}
    ]}
  ]
}
